This is an account of results in patent US10561681B2, “Antimetastatic 2H-selenopheno[3,2-h]chromenes, synthesis thereof, and methods of using same agents” (Latvian Institute of Organic Synthesis, priority 2016, dated 2020).

Molecules are shown by their SMILES. Where “and” joins values, the source holds several entries; their conditions need not be identical. Identical values can stand only once.

The nature of data set [1]: Basal cytotoxicity test, Neutral Red Uptake (NRU) assay. The format is cell-based. To be noted: for LD50 at 24 h: mouse, po, acute oral LD50 calculated from 3T3 NRU IC50 by regression formula, read-out: Basal cytotoxicity Estimated* LD50; for IC50 at 24 h: normal mouse embryo fibroblasts, read-out: Cytotoxicity IC50, 3T3. A digest of the protocol:
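Balb/c 3T3 fibroblasts (9000 cells/well) exposed 24 h to compounds at 1–1000 μg/ml in DMEM with 5% FBS. Viability by Neutral Red uptake (3 h, 0.05 mg/mL), absorbance at 540 nm relative to untreated cells; IC50 from concentration–response.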

The subject of data set [2] is MES-SA (human uterus sarcoma). The data set can be described thus: In vitro cytotoxicity, MTT test. The format is cell-based. To be noted: MTT, 72 h, read-out: Cytotoxicity IC50, MES-SA. A digest of the protocol: (§1)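 Cells seeded at 2-9·10^4 cells/mL with compounds added immediately, then incubated 72 h at 37 °C, 5% CO2 against untreated controls. Survival measured by MTT (3 h), formazan dissolved in DMSO and absorbance read at 540 nm.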
(Tetrazolium assays rely on reduction of a dye to a coloured formazan, in cell work by metabolically active cells.)

Data set [3] concerns A549 (human lung carcinoma). The data set is described as follows: In vitro cytotoxicity, MTT test. In kind it is cell-based. Particulars: Homo sapiens, A549, 72 h, MTT, 72 h; read-out: Cytotoxicity IC50, A549. A digest of the protocol:
as §1

Data set [4] concerns MG-22A (mouse hepatoma). The data set can be described thus: In vitro cytotoxicity, MTT test. In kind it is cell-based. To be noted: MTT, 72 h, read-out: Cytotoxicity IC50, MG-22A. A digest of the protocol: as §1
For data set [5], the system named is CCL-8 (mouse sarcoma). The data set can be described thus: In vitro cytotoxicity, MTT test. The format is cell-based. Particulars: MTT, 72 h, read-out: Cytotoxicity IC50, CCL-8. A digest of the protocol: as §1
The subject of data set [6] is SH-SY5Y (human neuroblastoma). The data set can be described thus: In vitro cytotoxicity, MTT test. To be noted: Homo sapiens, SH-SY5Y, 72 h, MTT, read-out: Cytotoxicity IC50, SHSY5Y. The format is cell-based. The gist of the method: as §1
For data set [7], the system named is HepG2 (human hepatocellular carcinoma). The data set is described as follows: In vitro cytotoxicity, MTT test. The format is cell-based. Particulars: HepG2, MTT, 72 h, read-out: Cytotoxicity IC50, HepG2. The gist of the method:
as §1

In data set [8] the test system is MDA-MB-435s (human melanoma). The data set is described as follows: In vitro cytotoxicity, MTT test. To be noted: MTT, 72 h, read-out: Cytotoxicity IC50, MDA-MB-435s. In kind it is cell-based. The gist of the method:
as §1

Data set [9] has as its system MCF-7 (human breast adenocarcinoma, estrogen-positive). The data set is described as follows: In vitro cytotoxicity, MTT test. The format is cell-based. To be noted: MCF7, MTT, 72 h, read-out: Cytotoxicity IC50, MCF-7. The gist of the method:
as §1

For data set [10], the system named is HT-1080 (human fibrosarcoma). The data set is described as follows: In vitro cytotoxicity, MTT test. Particulars: HT-1080, MTT, 72 h, read-out: Cytotoxicity IC50, HT-1080. In kind it is cell-based. The gist of the method:
as §1

The test system of data set [11] is 4T1 cells. The data set is described as follows: Orthotropic model of 4T1 murine metastatic breast cancer in BALB/c mice. The format is in vivo, mouse. To be noted: 4T1 orthotropic; for Increase of spleen weight (splenomegaly) compared with healthy animals: control with tumors 316%. Here is the method:
Orthotropic model of mouse breast cancer was developed by injection of 4T1 cells in the mammary fat pad of syngeneic BALB/c mice. In this case, 4T1 cells develops solid tumors following by metastasis in lung, liver, lymph nodes, and brain (Aslakson at al., Cancer Res, 1992, 52, 1399-1405).
In our experiments seven-week-old female BALB/c mice were injected orthotopically into the fourth mammary fat pad with 10^5 4T1 cells suspended in 0.01 mL of PBS on day zero of the study. The compounds dissolved in DMSO, diluted with 0.1 mL water (DMSO final concentration 1%) and injected s.c. The compounds were administered at 1, 2, 3, 11 days, dose 20 mg/kg. Mice in the untreated group were similarly given four doses of 0.1 mL of water with DMSO. Tumor volume (tumor volume V=[…], wherein “a” is the maximal, and “b”—the minimal tumor diameter) was calculated twice per week. The mice were examined every other day on appearance, weight and behavior. The mice were sacrificed at day 16 of the experiment by decapitation under ketamine/xylazine anesthesia. After euthanasia, the mice were dissected. The primary tumor, liver and spleen were removed, weighed and studied. All metastases in the internal organs were described.

In general, LD50 refers to the dose expected to kill half of the subjects tested. A word on the IC50: it is the concentration that inhibits the measured activity by half. In the case of `COC(=O)c1cc2ccc3c(Br)c(CN4CCN(C)CC4)[se]c3c2oc1=O` [Compound I-10, Methyl 7-bromo-8-((4-methylpiperazin-1-yl)methyl)-2-oxo-2H-selenopheno[3,2-h]chromene-3-carboxylate], in data set [1], the LD50 at 24 h is 4300 µmol/kg and 2300 mg/kg. Moreover, the 50% inhibitory concentration (IC50) at 24 h in data set [1] is 86 ± 5 µM. Also, the IC50 in [2] is > 187 µM; in [3] it was 187 ± 10 µM; in [4], 64 ± 5 µM; in [5] it was 94 ± 7 µM; in [6], > 117 µM; in data set [7], 187 ± 10 µM. Further, the IC50 in [8] was > 187 µM; in data set [9] it was 150 ± 9 µM; in [10], 170 ± 9 µM. Besides, in data set [11], the “Formation of metastases” value is “dramatically reduces the formation of metastases”. The “Increase of spleen weight (splenomegaly) compared with healthy animals” value in [11] was 256%.

As for `O=C(O)c1cc2ccc3c(Br)c(C4(O)CCCCC4)[se]c3c2oc1=O` [Compound I-11, 7-Bromo-8-(1-hydroxycyclohexyl)-2-oxo-2H-selenopheno[3,2-h]chromene-3-carboxylic acid], the LD50 at 24 h in [1] was > 5800 µmol/kg and > 2730 mg/kg. Also, in data set [1], the IC50 at 24 h was > 213 µM. The IC50 in data set [2] was 206 ± 10 µM; in data set [3] it was > 213 µM; in data set [4], > 122 µM; in data set [5], 149 ± 9 µM; in data set [6], > 117 µM; in data set [7], > 213 µM. For the same compound, the IC50 in data set [8] came out at 208 ± 13 µM; in data set [9] it was 213 ± 6 µM; in [10] it was 77 ± 5 µM. In addition, the “Formation of metastases” value in data set [11] was “dramatically reduces the formation of metastases”. Besides, in [11], the “Increase of spleen weight (splenomegaly) compared with healthy animals” value is on record as 198%.
